From the supplement of paper PMC9912026

Test system: A375_aEGFR2
Experiment: pERK immunofluorescence normalised to no-drug reference (=1); higher = more ERK phosphorylation (less pathway inhibition)
Settings: drug treatment time 24 h, EGF time 8 h
Procedure: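 A375 CRISPRa-EGFR (A375_aEGFR2) or HT29 cells were treated with two-drug dose combinations (vemurafenib, LY3009120, cobimetinib) for 24 h, then stimulated with EGF (100 ng/mL) or mock medium for 8 h. pERK (T202/Y204) was measured by immunofluorescence as the cytosolic population average, normalised to an untreated no-drug reference of the block (=1). Averages of 2 technical replicates. A375 in 5% FBS, HT29 in 10% FBS.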

CCCS(=O)(=O)Nc1ccc(F)c(C(=O)c2c[nH]c3ncc(-c4ccc(Cl)cc4)cc23)c1F [Vemurafenib] + CNc1ncc2cc(-c3cc(NC(=O)NCCC(C)(C)C)c(F)cc3C)c(C)nc2n1 [LY3009120]
pERK immunofluorescence normalised
Settings | EGF 0 ng/mL | EGF 100 ng/mL
drug A concentration 0 µM, drug B concentration 0.0001 µM | 1.02 | 1.04
drug A concentration 0 µM, drug B concentration 0.000316228 µM | 1.03 | 1.07
drug A concentration 0 µM, drug B concentration 0.001 µM | 1.06 | 1.02
drug A concentration 0 µM, drug B concentration 0.00316228 µM | 0.865 | 0.989
drug A concentration 0 µM, drug B concentration 0.01 µM | 0.696 | 0.807
drug A concentration 0 µM, drug B concentration 0.0316228 µM | 0.376 | 0.565
drug A concentration 0 µM, drug B concentration 0.1 µM | 0.193 | 0.368
drug A concentration 0 µM, drug B concentration 0.316228 µM | 0.157 | 0.264
drug A concentration 0 µM, drug B concentration 1 µM | 0.149 | 0.175
drug A concentration 0 µM, drug B concentration 3.16228 µM | 0.153 | 0.149
drug A concentration 0.000316228 µM, drug B concentration 0 µM | 1.03 | 0.99
drug A concentration 0.000316228 µM, drug B concentration 0.0001 µM | 1.03 | 0.996
drug A concentration 0.000316228 µM, drug B concentration 0.000316228 µM | 1.03 | 1.02
drug A concentration 0.000316228 µM, drug B concentration 0.001 µM | 0.876 | 0.959
drug A concentration 0.000316228 µM, drug B concentration 0.00316228 µM | 0.793 | 0.849
drug A concentration 0.000316228 µM, drug B concentration 0.01 µM | 0.488 | 0.648
drug A concentration 0.000316228 µM, drug B concentration 0.0316228 µM | 0.263 | 0.454
drug A concentration 0.000316228 µM, drug B concentration 0.1 µM | 0.168 | 0.312
drug A concentration 0.000316228 µM, drug B concentration 0.316228 µM | 0.151 | 0.206
drug A concentration 0.000316228 µM, drug B concentration 1 µM | 0.15 | 0.155
drug A concentration 0.000316228 µM, drug B concentration 3.16228 µM | 0.15 | 0.14
drug A concentration 0.001 µM, drug B concentration 0 µM | 1 | 1.02
drug A concentration 0.001 µM, drug B concentration 0.0001 µM | 1.01 | 0.999
drug A concentration 0.001 µM, drug B concentration 0.000316228 µM | 0.997 | 0.982
drug A concentration 0.001 µM, drug B concentration 0.001 µM | 0.96 | 0.953
drug A concentration 0.001 µM, drug B concentration 0.00316228 µM | 0.806 | 0.892
drug A concentration 0.001 µM, drug B concentration 0.01 µM | 0.501 | 0.635
drug A concentration 0.001 µM, drug B concentration 0.0316228 µM | 0.278 | 0.468
drug A concentration 0.001 µM, drug B concentration 0.1 µM | 0.168 | 0.331
drug A concentration 0.001 µM, drug B concentration 0.316228 µM | 0.148 | 0.215
drug A concentration 0.001 µM, drug B concentration 1 µM | 0.15 | 0.156
drug A concentration 0.001 µM, drug B concentration 3.16228 µM | 0.149 | 0.134
drug A concentration 0.00316228 µM, drug B concentration 0 µM | 0.995 | 0.977
drug A concentration 0.00316228 µM, drug B concentration 0.0001 µM | 1.05 | 0.996
drug A concentration 0.00316228 µM, drug B concentration 0.000316228 µM | 0.961 | 1.04
drug A concentration 0.00316228 µM, drug B concentration 0.001 µM | 0.922 | 0.953
drug A concentration 0.00316228 µM, drug B concentration 0.00316228 µM | 0.781 | 0.836
drug A concentration 0.00316228 µM, drug B concentration 0.01 µM | 0.534 | 0.641
drug A concentration 0.00316228 µM, drug B concentration 0.0316228 µM | 0.27 | 0.456
drug A concentration 0.00316228 µM, drug B concentration 0.1 µM | 0.167 | 0.305
drug A concentration 0.00316228 µM, drug B concentration 0.316228 µM | 0.145 | 0.212
drug A concentration 0.00316228 µM, drug B concentration 1 µM | 0.15 | 0.154
drug A concentration 0.00316228 µM, drug B concentration 3.16228 µM | 0.149 | 0.139
drug A concentration 0.01 µM, drug B concentration 0 µM | 0.897 | 0.969
drug A concentration 0.01 µM, drug B concentration 0.0001 µM | 0.912 | 0.967
drug A concentration 0.01 µM, drug B concentration 0.000316228 µM | 0.891 | 0.96
drug A concentration 0.01 µM, drug B concentration 0.001 µM | 0.889 | 0.91
drug A concentration 0.01 µM, drug B concentration 0.00316228 µM | 0.732 | 0.789
drug A concentration 0.01 µM, drug B concentration 0.01 µM | 0.471 | 0.625
drug A concentration 0.01 µM, drug B concentration 0.0316228 µM | 0.28 | 0.469
drug A concentration 0.01 µM, drug B concentration 0.1 µM | 0.165 | 0.311
drug A concentration 0.01 µM, drug B concentration 0.316228 µM | 0.15 | 0.205
drug A concentration 0.01 µM, drug B concentration 1 µM | 0.153 | 0.157
drug A concentration 0.01 µM, drug B concentration 3.16228 µM | 0.148 | 0.138
drug A concentration 0.0316228 µM, drug B concentration 0 µM | 0.695 | 0.896
drug A concentration 0.0316228 µM, drug B concentration 0.0001 µM | 0.759 | 0.9
drug A concentration 0.0316228 µM, drug B concentration 0.000316228 µM | 0.727 | 0.935
drug A concentration 0.0316228 µM, drug B concentration 0.001 µM | 0.745 | 0.852
drug A concentration 0.0316228 µM, drug B concentration 0.00316228 µM | 0.669 | 0.768
drug A concentration 0.0316228 µM, drug B concentration 0.01 µM | 0.457 | 0.635
drug A concentration 0.0316228 µM, drug B concentration 0.0316228 µM | 0.251 | 0.454
drug A concentration 0.0316228 µM, drug B concentration 0.1 µM | 0.166 | 0.319
drug A concentration 0.0316228 µM, drug B concentration 0.316228 µM | 0.146 | 0.216
drug A concentration 0.0316228 µM, drug B concentration 1 µM | 0.152 | 0.156
drug A concentration 0.0316228 µM, drug B concentration 3.16228 µM | 0.15 | 0.138
drug A concentration 0.1 µM, drug B concentration 0 µM | 0.453 | 0.761
drug A concentration 0.1 µM, drug B concentration 0.0001 µM | 0.436 | 0.789
drug A concentration 0.1 µM, drug B concentration 0.000316228 µM | 0.465 | 0.802
drug A concentration 0.1 µM, drug B concentration 0.001 µM | 0.482 | 0.771
drug A concentration 0.1 µM, drug B concentration 0.00316228 µM | 0.416 | 0.719
drug A concentration 0.1 µM, drug B concentration 0.01 µM | 0.321 | 0.61
drug A concentration 0.1 µM, drug B concentration 0.0316228 µM | 0.206 | 0.45
drug A concentration 0.1 µM, drug B concentration 0.1 µM | 0.161 | 0.329
drug A concentration 0.1 µM, drug B concentration 0.316228 µM | 0.152 | 0.229
drug A concentration 0.1 µM, drug B concentration 1 µM | 0.151 | 0.161
drug A concentration 0.1 µM, drug B concentration 3.16228 µM | 0.147 | 0.137
drug A concentration 0.316228 µM, drug B concentration 0 µM | 0.252 | 0.767
drug A concentration 0.316228 µM, drug B concentration 0.0001 µM | 0.262 | 0.764
drug A concentration 0.316228 µM, drug B concentration 0.000316228 µM | 0.264 | 0.746
drug A concentration 0.316228 µM, drug B concentration 0.001 µM | 0.292 | 0.721
drug A concentration 0.316228 µM, drug B concentration 0.00316228 µM | 0.295 | 0.653
drug A concentration 0.316228 µM, drug B concentration 0.01 µM | 0.266 | 0.579
drug A concentration 0.316228 µM, drug B concentration 0.0316228 µM | 0.203 | 0.431
drug A concentration 0.316228 µM, drug B concentration 0.1 µM | 0.158 | 0.293
drug A concentration 0.316228 µM, drug B concentration 0.316228 µM | 0.146 | 0.19
drug A concentration 0.316228 µM, drug B concentration 1 µM | 0.149 | 0.149
drug A concentration 0.316228 µM, drug B concentration 3.16228 µM | 0.146 | 0.137
drug A concentration 1 µM, drug B concentration 0 µM | 0.192 | 0.784
drug A concentration 1 µM, drug B concentration 0.0001 µM | 0.185 | 0.755
drug A concentration 1 µM, drug B concentration 0.000316228 µM | 0.191 | 0.728
drug A concentration 1 µM, drug B concentration 0.001 µM | 0.204 | 0.725
drug A concentration 1 µM, drug B concentration 0.00316228 µM | 0.211 | 0.678
drug A concentration 1 µM, drug B concentration 0.01 µM | 0.201 | 0.598
drug A concentration 1 µM, drug B concentration 0.0316228 µM | 0.184 | 0.467
drug A concentration 1 µM, drug B concentration 0.1 µM | 0.159 | 0.308
drug A concentration 1 µM, drug B concentration 0.316228 µM | 0.152 | 0.195
drug A concentration 1 µM, drug B concentration 1 µM | 0.149 | 0.149
drug A concentration 1 µM, drug B concentration 3.16228 µM | 0.152 | 0.137
drug A concentration 3.16228 µM, drug B concentration 0 µM | 0.176 | 0.761
drug A concentration 3.16228 µM, drug B concentration 0.0001 µM | 0.165 | 0.663
drug A concentration 3.16228 µM, drug B concentration 0.000316228 µM | 0.172 | 0.678
drug A concentration 3.16228 µM, drug B concentration 0.001 µM | 0.168 | 0.701
drug A concentration 3.16228 µM, drug B concentration 0.00316228 µM | 0.171 | 0.649
drug A concentration 3.16228 µM, drug B concentration 0.01 µM | 0.169 | 0.625
drug A concentration 3.16228 µM, drug B concentration 0.0316228 µM | 0.165 | 0.508
drug A concentration 3.16228 µM, drug B concentration 0.1 µM | 0.156 | 0.337
drug A concentration 3.16228 µM, drug B concentration 0.316228 µM | 0.145 | 0.197
drug A concentration 3.16228 µM, drug B concentration 1 µM | 0.147 | 0.15
drug A concentration 3.16228 µM, drug B concentration 3.16228 µM | 0.15 | 0.156
drug A concentration 10 µM, drug B concentration 0 µM | 0.164 | 0.668
drug A concentration 10 µM, drug B concentration 0.0001 µM | 0.172 | 0.644
drug A concentration 10 µM, drug B concentration 0.000316228 µM | 0.166 | 0.629
drug A concentration 10 µM, drug B concentration 0.001 µM | 0.167 | 0.651
drug A concentration 10 µM, drug B concentration 0.00316228 µM | 0.171 | 0.663
drug A concentration 10 µM, drug B concentration 0.01 µM | 0.177 | 0.628
drug A concentration 10 µM, drug B concentration 0.0316228 µM | 0.172 | 0.553
drug A concentration 10 µM, drug B concentration 0.1 µM | 0.165 | 0.335
drug A concentration 10 µM, drug B concentration 0.316228 µM | 0.166 | 0.228
drug A concentration 10 µM, drug B concentration 1 µM | 0.157 | 0.177
drug A concentration 10 µM, drug B concentration 3.16228 µM | 0.162 | 0.153
